Results taken from patent publication US6500865B1, “Sulfonamide derivatives” (Eli Lilly and Company, priority 1998, dated 2002).

Biological target: T1, human GluR4B receptor (Homo sapiens, UniProt P48058)
T1 construct: expressed in transfected cells
Experiment: potentiation of agonist-induced excitability of human GluR4B receptor expressed in HEK 293 cells
Type: cell-based
Details: human GluR4B expressed in HEK 293 cells; qualitative statement
Excerpt: The ability of compounds of formula I to potentiate glutamate receptor-mediated response may be determined using fluorescent calcium indicator dyes (Molecular Probes, Eugene, Oreg., Fluo-3) and by measuring glutamate-evoked efflux of calcium into GluR4 transfected HEK293 cells, as described in more detail below.
In one test, 96 well plates containing confluent monolayers of HEK cells stably expressing human GluR4B (obtained as described in European Patent Application Publication Number EP-A1-583917) are prepared. The tissue culture medium in the wells is then discarded, and the wells are each washed once with 200 μl of buffer (glucose, 10 mM, sodium chloride, 138 mM, magnesium chloride, 1 mM, potassium chloride, 5 mM, calcium chloride, 5 mM, N-[2-hydroxyethyl]-piperazine-N-[2-ethanesulfonic acid], 10 mM, to pH 7.1 to 7.3). […]
Each test is then performed as follows. […] A second fluorescent reading is taken after 5 minutes incubation. 15 μl of 400 μM glutamate solution is then added to each well (final glutamate concentration 100 μM), and a third reading is taken. The activities of test compounds and cyclothiazide solutions are determined by subtracting the second from the third reading (fluorescence due to addition of glutamate in the presence or absence of test compound or cyclothiazide) and are expressed relative to enhance fluorescence produced by 100 μM cyclothiazide.

T1 sequence (P48058 21-902): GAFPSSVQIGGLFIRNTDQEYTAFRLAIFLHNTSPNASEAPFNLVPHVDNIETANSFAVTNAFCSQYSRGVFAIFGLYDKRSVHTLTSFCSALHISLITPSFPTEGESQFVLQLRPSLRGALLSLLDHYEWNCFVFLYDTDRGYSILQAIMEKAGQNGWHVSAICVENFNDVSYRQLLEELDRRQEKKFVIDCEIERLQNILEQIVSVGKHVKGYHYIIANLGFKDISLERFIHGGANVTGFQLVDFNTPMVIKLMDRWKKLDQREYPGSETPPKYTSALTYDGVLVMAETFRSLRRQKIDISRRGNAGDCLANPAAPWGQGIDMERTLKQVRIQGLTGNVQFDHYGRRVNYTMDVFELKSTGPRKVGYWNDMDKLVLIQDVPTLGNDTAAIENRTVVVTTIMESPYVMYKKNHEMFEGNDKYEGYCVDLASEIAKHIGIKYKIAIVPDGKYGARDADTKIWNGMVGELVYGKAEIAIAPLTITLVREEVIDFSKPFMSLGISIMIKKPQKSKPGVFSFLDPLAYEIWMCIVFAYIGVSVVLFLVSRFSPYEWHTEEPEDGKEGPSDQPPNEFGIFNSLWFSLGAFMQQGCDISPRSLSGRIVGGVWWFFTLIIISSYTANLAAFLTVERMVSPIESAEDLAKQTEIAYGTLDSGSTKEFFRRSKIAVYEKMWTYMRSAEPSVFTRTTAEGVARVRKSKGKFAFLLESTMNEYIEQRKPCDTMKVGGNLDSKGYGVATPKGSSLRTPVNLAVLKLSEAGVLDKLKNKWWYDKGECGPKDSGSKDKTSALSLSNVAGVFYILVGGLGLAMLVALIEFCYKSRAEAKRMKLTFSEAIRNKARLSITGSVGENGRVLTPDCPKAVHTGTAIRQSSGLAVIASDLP

## NS(=O)(=O)c1cc2c(cc1Cl)NC(C1CC3C=CC1C3)NS2(=O)=O (stereo not shown) [cyclothiazide]
  potentiation of agonist-induced excitability of human GluR4B receptor: potentiate
